Literature values in patent US20100143437A1, “IMPLANTABLE ANALGESIC” (priority 2008, published 2010).

Details: in adults

half life: approximately 210 minutes
Compound: CCCCN1CCCCC1C(=O)Nc1c(C)cccc1C (stereo not shown) [bupivacaine, 1-butyl-N-(2,6-dimethylphenyl) piperidine-2-carboxamide]
